The structures appear in SMILES notation.

Common to all, as to experiment: Bliss excess, mean over the matrix (fraction); higher = more synergy
Assay [1] has as its system HuH-7 (Hepatocellular Carcinoma). The method, boiled down:
(§1)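 Cell lines grown in DMEM/F12 or RPMI with 10% FBS were plated in 1536-well plates and held 24 hours at 37°C, 5% CO2 before 72 hours of exposure to two-drug dose matrices, with DMSO typically at 0.2%. CellTiter-Glo 2.0 luminescence gave viability, which was converted to inhibition. Vehicle wells were set to 0 and blank wells to 1. Combination Emax is the second-highest inhibition in the matrix, and Bliss excess is the observed combination effect minus the expected EA + EB − EA·EB, where EA and EB are the single-agent effects.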

For assay [2], the system named is MHH-CALL-2 (B-Lymphoblastic Leukemia). In short, it runs like this:
as §1

The subject of the next assay is KS-1 (Glioblastoma). In short, it runs like this:
as §1

Assay [3] deals with TGBC1TKB (Biliary Tract Carcinoma). The method, boiled down: as §1
Assay [4] has as its system NCI-H209 (Small Cell Lung Carcinoma). In short, it runs like this:
as §1

For assay [5], the system named is SNU-16 (Gastric Carcinoma). In short, it runs like this: as §1
Assay [6] deals with NCI-H524 (Small Cell Lung Carcinoma). The method, boiled down: as §1
In another assay the test system is EW-11 (Ewing's Sarcoma). In short, it runs like this:
as §1

In assay [7] the test system is SNU-449 (Hepatocellular Carcinoma). In short, it runs like this:
as §1

Assay [8] has as its system CAL-33 (Oral Cavity Carcinoma). In short, it runs like this:
as §1

Assay [9] relates to BE-13 (T-Lymphoblastic Leukemia). The method, boiled down: as §1
In a further assay the test system is GAMG (Glioblastoma). The method, boiled down: as §1
The test system of assay [10] is L-428 (Hodgkin's Lymphoma). The method, boiled down: as §1
Another assay deals with CAL-72 (Osteosarcoma). The method, boiled down:
as §1

Assay [11] concerns OE21 (Esophageal Squamous Cell Carcinoma). The method, boiled down: as §1
The next assay relates to BE2-M17 (Neuroblastoma). The method, boiled down: as §1
The next assay concerns NCI-H2722 (Mesothelioma). The method, boiled down: as §1
The subject of assay [12] is NCI-H1568 (Lung Adenocarcinoma). The method, boiled down: as §1
In assay [13] the test system is HeLa (Cervical Carcinoma). In short, it runs like this: as §1
Assay [14] relates to LS-123 (Colorectal Carcinoma). In short, it runs like this:
as §1

With `CN(CCO)CC[C@H](CSc1ccccc1)Nc1ccc(S(=O)(=O)NC(=O)c2ccc(N3CCC([C@@H](O)c4ccccc4-c4ccc(Cl)cc4)CC3)cc2)cc1S(=O)(=O)C(F)(F)F` [AZD4320] + C1CN(CCC1(C(=O)N[C@@H](CCO)C2=CC=C(C=C2)Cl)N)C3=NC=NC4=C3C=CN4 [Capivasertib] (first compound max 1 µM, 7x7, partner max 3 µM), the Bliss excess in assay [1] was -0.0402; in assay [2], -0.0126; with KS-1 (Glioblastoma), -0.0435; in [3], -0.0306; in assay [4] it was -0.0057; in assay [5], 0.0015. Moreover, the Bliss excess in assay [6] was -0.0517; in the assay on EW-11 (Ewing's Sarcoma), 0.0405; in assay [7], -0.0742; in assay [8], -0.0424; in assay [9], -0.0175; in the assay with GAMG (Glioblastoma) it was -0.0661. Moreover, the Bliss excess was -0.0146 in assay [10]; -0.0184 with CAL-72 (Osteosarcoma); 0.0073 in assay [11]; 0.006 in the assay on BE2-M17 (Neuroblastoma); -0.081 in the assay on NCI-H2722 (Mesothelioma); -0.0518 in assay [12]. Further, the Bliss excess in assay [13] is -0.0377.

Turning to `Cc1c2c(nn1C)CSCc1cc(n(C)n1)CSc1cc(c3ccccc3c1)OCCCc1c(C(=O)O)n(C)c3c-2c(Cl)ccc13` [AZD5991] + CCN(CCO)CCCOc1ccc2c(Nc3cc(CC(=O)Nc4cccc(F)c4)[nH]n3)ncnc2c1 [AZD2811] (first compound max 1 µM, 7x7, partner max 1 µM), the Bliss excess in [1] is 0.0109; in assay [2], 0.0503; in the assay on KS-1 (Glioblastoma), -0.0459; in assay [3], -0.0141; in [4], 0.191; in assay [5], 0.0377. Further, the Bliss excess in [6] was -0.0016; in the assay with EW-11 (Ewing's Sarcoma), 0.0342; in [7], -0.0041; in assay [8] it was 0.0153; in assay [9], 0.0225; with GAMG (Glioblastoma) it was 0.0105. Also, the Bliss excess was 0.0712 in [10]; 0.0582 with CAL-72 (Osteosarcoma); 0.0345 in assay [11]; 0.0668 in the assay on BE2-M17 (Neuroblastoma); -0.0407 in the assay on NCI-H2722 (Mesothelioma); -0.0051 in [12]. Further, the Bliss excess in [13] worked out at 0.0319.

For `CN(CCO)CC[C@H](CSc1ccccc1)Nc1ccc(S(=O)(=O)NC(=O)c2ccc(N3CCC([C@@H](O)c4ccccc4-c4ccc(Cl)cc4)CC3)cc2)cc1S(=O)(=O)C(F)(F)F` [AZD4320] + CN(C)CCCOc1ccc(-c2ccc3ncc4c(c3c2)n(C2CCOCC2)c(=O)n4C)cn1 [AZD0156] (first compound max 1 µM, 7x7, partner max 1 µM), the Bliss excess in assay [1] is -0.0129; in [2] it was 0.106; in the assay on KS-1 (Glioblastoma), -0.0136; in assay [3], -0.022; in [4], 0.033; in assay [5] it was -0.0207. The Bliss excess in assay [6] is 0.0124; in the assay on EW-11 (Ewing's Sarcoma), -0.0102; in assay [7] it was -0.0828; in [8], 0.007; in assay [9], -0.0325; in the assay with GAMG (Glioblastoma) it was -0.0237. Also, the Bliss excess is 0.0464 in assay [10]; -0.0292 in the assay with CAL-72 (Osteosarcoma); -0.0207 in [11]; -0.0171 with BE2-M17 (Neuroblastoma); -0.0276 in the assay with NCI-H2722 (Mesothelioma); -0.0099 in [12]. In assay [13], the Bliss excess was -0.0321.

Take `Cc1c2c(nn1C)CSCc1cc(n(C)n1)CSc1cc(c3ccccc3c1)OCCCc1c(C(=O)O)n(C)c3c-2c(Cl)ccc13` [AZD5991] + Cc1cc2ncnn2cc1Nc1ncc2c(n1)n(C1CCOCC1)c(=O)n2C [AZD7648] (first compound max 1 µM, 7x7, partner max 10 µM): the Bliss excess in [1] is -0.0408; in [2], -0.011; in the assay on KS-1 (Glioblastoma), -0.0797; in [3], -0.0115; in [5], 0.0284; in [14] it was -0.0378. For the same molecule, the Bliss excess in assay [6] is -0.016; with EW-11 (Ewing's Sarcoma), -0.0197; in assay [7], -0.0453; in [8] it was -0.0341; in assay [9], 0.0066; with GAMG (Glioblastoma) it was -0.0321. Also, the Bliss excess in assay [10] was 0.0455; with CAL-72 (Osteosarcoma), -0.0475; in assay [11], -0.0387; in the assay with BE2-M17 (Neuroblastoma), -0.0159; with NCI-H2722 (Mesothelioma), -0.0785; in [12], -0.0717. In [13], the Bliss excess came to 0.0021.

In the case of `C=CCn1c(=O)c2cnc(Nc3ccc(N4CCN(C)CC4)cc3)nc2n1-c1cccc(C(C)(C)O)n1` [AZD1775] + C1CN(CCC1(C(=O)N[C@@H](CCO)C2=CC=C(C=C2)Cl)N)C3=NC=NC4=C3C=CN4 [Capivasertib] (first compound max 3 µM, partner max 3 µM), the Bliss excess is 0.0263 in assay [1]; 0.029 in assay [2]; -0.0126 in the assay with KS-1 (Glioblastoma); -0.0061 in assay [3]; -0.0341 in assay [14]; -0.0075 in assay [6]. Also, the Bliss excess in the assay on EW-11 (Ewing's Sarcoma) is 0.0203; in assay [7] it was 0.0122; in assay [8], 0.066; in [9], -0.0508; in the assay with GAMG (Glioblastoma) it was 0.0181; in assay [10], -0.0138. In addition, the Bliss excess in the assay with CAL-72 (Osteosarcoma) is 0.0259; in assay [11], -0.0253; in the assay with BE2-M17 (Neuroblastoma), -0.0406; in the assay on NCI-H2722 (Mesothelioma), -0.0603; in [12], -0.0572; in assay [13] it was -0.0168.

In the case of `CN(CCO)CC[C@H](CSc1ccccc1)Nc1ccc(S(=O)(=O)NC(=O)c2ccc(N3CCC([C@@H](O)c4ccccc4-c4ccc(Cl)cc4)CC3)cc2)cc1S(=O)(=O)C(F)(F)F` [AZD4320] + C=CCn1c(=O)c2cnc(Nc3ccc(N4CCN(C)CC4)cc3)nc2n1-c1cccc(C(C)(C)O)n1 [AZD1775] (first compound max 1 µM, partner max 1 µM), the Bliss excess was found to be 0.0346 in [1]; 0.14 in assay [2]; 0.0327 with KS-1 (Glioblastoma); 0.0352 in assay [3]; 0.0963 in [4]; 0.0049 in [5]. The Bliss excess in assay [6] is 0.055; in the assay on EW-11 (Ewing's Sarcoma), 0.091; in assay [7] it was -0.0744; in assay [8], -0.0266; in assay [9], 0.046; in the assay on GAMG (Glioblastoma), 0.0041. In addition, the Bliss excess was 0.0961 in assay [10]; 0.0392 in the assay with CAL-72 (Osteosarcoma); 0.0199 with BE2-M17 (Neuroblastoma); 0.042 in the assay on NCI-H2722 (Mesothelioma); 0.0492 in assay [12]; -0.0523 in [13].
